# Patent publication USRE49735E1 (BRISTOL-MYERS SQUIBB COMPANY, priority 2010, dated 2023)
# Molecular target: human mGluR5A (Homo sapiens, UniProt P41594)
# Experiment: mGluR5 FLIPR Assay
# Type: cell-based
# Conditions: positive modulator activity; HEK293 (ZF) cells with human mGluR5A and rat GLAST; Ca++ response to ~EC10 glutamate
# Sequence of human mGluR5A (P41594 21-1180 isoform P41594-2): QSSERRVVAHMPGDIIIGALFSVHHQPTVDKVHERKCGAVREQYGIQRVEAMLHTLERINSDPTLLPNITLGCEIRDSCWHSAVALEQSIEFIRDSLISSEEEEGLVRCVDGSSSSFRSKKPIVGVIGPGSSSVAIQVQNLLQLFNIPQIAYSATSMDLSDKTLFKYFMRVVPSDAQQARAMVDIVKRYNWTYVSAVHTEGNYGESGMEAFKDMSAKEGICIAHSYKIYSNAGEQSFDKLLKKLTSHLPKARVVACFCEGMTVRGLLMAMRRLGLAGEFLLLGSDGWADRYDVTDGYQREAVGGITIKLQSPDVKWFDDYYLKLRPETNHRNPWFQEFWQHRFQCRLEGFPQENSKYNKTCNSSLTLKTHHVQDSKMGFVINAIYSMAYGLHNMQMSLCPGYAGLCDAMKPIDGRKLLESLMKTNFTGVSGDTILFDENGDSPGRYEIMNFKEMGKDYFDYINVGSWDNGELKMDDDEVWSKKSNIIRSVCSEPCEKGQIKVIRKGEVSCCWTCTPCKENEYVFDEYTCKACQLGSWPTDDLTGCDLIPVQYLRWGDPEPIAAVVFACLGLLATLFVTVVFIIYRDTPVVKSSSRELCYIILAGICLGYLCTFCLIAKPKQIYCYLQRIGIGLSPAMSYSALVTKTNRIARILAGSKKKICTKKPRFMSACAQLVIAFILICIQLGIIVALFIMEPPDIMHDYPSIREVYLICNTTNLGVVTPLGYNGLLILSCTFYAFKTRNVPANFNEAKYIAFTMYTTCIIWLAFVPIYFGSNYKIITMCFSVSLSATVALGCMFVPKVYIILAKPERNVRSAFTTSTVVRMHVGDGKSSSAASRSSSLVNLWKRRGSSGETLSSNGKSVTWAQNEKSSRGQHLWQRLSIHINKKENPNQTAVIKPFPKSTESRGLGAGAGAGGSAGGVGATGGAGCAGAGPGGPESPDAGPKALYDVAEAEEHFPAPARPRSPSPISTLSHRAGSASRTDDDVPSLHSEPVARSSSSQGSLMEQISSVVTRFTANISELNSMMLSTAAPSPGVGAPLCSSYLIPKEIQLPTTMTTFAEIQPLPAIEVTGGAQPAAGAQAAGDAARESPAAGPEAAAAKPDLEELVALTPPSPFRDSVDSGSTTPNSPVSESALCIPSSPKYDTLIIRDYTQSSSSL
row,SMILES,EC50
1,"O=C1N[C@H](c2cncc(C#Cc3ccccc3Cl)c2)[C@@H](c2cccc(F)c2)O1 [Example 399, (4R,5R)-4-(5-((2-chlorophenyl)ethynyl)pyridin-3-yl)-5-(3-fluorophenyl)oxazolidin-2-one]",< 100 nM
2,"O=C1N[C@H](c2cncc(C#Cc3cccc(Cl)c3)c2)[C@@H](c2cccc(F)c2)O1 [Example 403, (4R,5R)-4-(5-((3-chlorophenyl)ethynyl)pyridin-3-y1)-5-(3-fluorophenyl)oxazolidin-2-one]",< 100 nM
3,"O=C1N[C@H](c2cncc(C#Cc3ccccc3)c2)[C@@H](c2ccccc2F)O1 [Example 404, (4R,5R)-5-(2-Fluorophenyl)-4-(5-(phenylethynyl)pyridin-3-yl)oxazolidin-2-one]",< 100 nM
4,"O=C1N[C@@H](c2ccc(C#Cc3ccccc3)cn2)[C@H](c2cccc(F)c2)O1 [Example 409, (4S,5S)-5-(3-Fluorophenyl)-4-(5-(phenylethynyl)pyridin-2-yl)oxazolidin-2-one]",100 to 1000 nM

# Further lines, results first:
row,EC50,SMILES
1,< 100 nM,"O=C1N[C@H](c2cncc(C#Cc3cccc(F)c3)c2)[C@@H](c2cccc(F)c2)O1 [Example 400, (4R,5R)-5-(3-fluorophenyl)-4-(5-((3-fluorophenyl)ethynyl)pyridin-3-yl)oxazolidin-2-one]"
2,< 100 nM,"Cc1cccc(C#Cc2cncc([C@H]3NC(=O)O[C@@H]3c3cccc(F)c3)c2)c1 [Example 401, (4R,5R)-5-(3-fluorophenyl)-4-(5-(m-tolylethynyl)pyridin-3-yl)oxazolidin-2-one]"
3,> 3000 nM,"O=C1N[C@H](c2cncc(C#Cc3cccc(C(F)(F)F)c3)c2)[C@@H](c2cccc(F)c2)O1 [Example 402, (4R,5R)-5-(3-fluorophenyl)-4-(5((3-(trifluoromethyl)phenyl)ethynyl)pyridin-3-yl)oxazolidin-2-one]"
4,100 to 1000 nM,"O=C1N[C@H](c2ccc(C#Cc3ccccc3)nc2)[C@@H](c2cccc(F)c2)O1 [Example 408, (4R,5R)-5-(3-Fluorophenyl)-4-(6-(phenylethynyl)pyridin-3-yl)oxazolidin-2-one]"
5,> 1000 nM,"O=C1N[C@H](c2ccc(C#Cc3ccccc3)cn2)[C@@H](c2cccc(F)c2)O1 [Example 410, (4R,5R)-5-(3-fluorophenyl)-4-(5-(phenylethynyl)pyridin-2-yl)oxazolidin-2-one]"
